Reference: patent publication US9376418B2, “Substituted pyridine spleen tyrosine kinase (SYK) inhibitors” (Merck Sharp & Dohme Corp., priority 2012, dated 2016)

Target: T1, recombinant human GST-SYK (Homo sapiens, UniProt P43405)
T1 construct: purchased Carna Biosciences 08-176
Experiment: Homogeneous Time-Resolved Fluorescence (HTRF) assay for the recombinant human Syk enzyme
Assay type: biochemical
Details: HTRF assay, recombinant human GST-SYK; IC50 given as class symbols; read-out: rhSYK Activity
Protocol: Homogeneous Time-Resolved Fluorescence (HTRF) Assay for the Recombinant Human Syk Enzyme
A recombinant GST-hSYK fusion protein was used to measure potency of compounds to inhibit human Syk activity. The recombinant human GST-SYK (Carna Biosciences #08-176) ([…]) was incubated with various concentrations of the inhibitor diluted in DMSO (0.1% final concentration) for 10 minutes at room temperature in 15 mM Tris-HCl (pH 7.5), 0.01% tween 20, 2 mM DTT in 384 well plate format. To initiate the reaction the biotinylated substrate peptide (250 nM final concentration) that contains the phosphorylation site for Syk was added with magnesium (5 mM final concentration) and ATP (25 μM final concentration). Final volume of the reaction was 10 μL. Phosphorylation of the peptide was allowed to proceed for 45′ at room temperature. To quench the reaction and detect the phosphorylated product, 2 nM of a Europium-anti-phosphotyrosine antibody (Perkin Elmer #AD0161) and 70 nM SA-APC (Perkin-Elmer #CR130-100) were added together in 15 mM Tris pH 7.5, 40 mM EDTA, 0.01% tween 20. Final volume of the quenching solution was 10 μL. The resulting HTRF signal was measured after 30 minutes on an EnVision (Perkin-Elmer) reader using a time-resolved fluorescence protocol.

| SMILES | IC50 [nM] |
| --- | --- |
| CCCCOC(=O)C1CCC(C(C)(O)c2ccc(-c3cc(C)cc(Nc4nccc(C(F)(F)F)n4)c3)cn2)CC1 (single isomer, unassigned) [Example 9.52, butyl trans-4-{(1R or 1S)-1-hydroxy-1-[5-(3-methyl-5-{[4-(trifluoromethyl)pyrimidin-2-yl]amino}phenyl)pyridin-2-yl]ethyl}cyclohexanecarboxylate] | 100 to 1000 |
| CCCCOC(=O)C1CCC(C(C)(O)c2ccc(-c3cc(C)cc(Nc4ncc(Cl)c(C)n4)c3)cn2)CC1 (single isomer, unassigned) [Example 9.53, butyl trans-4-[(1R or 1S)-1-(5-{3-[(5-chloro-4-methylpyrimidin-2-yl)amino]-5-methylphenyl}pyridin-2-yl)-1-hydroxyethyl]cyclohexanecarboxylate] | 100 to 1000 |
| Cc1cc(Nc2nccc(C(F)(F)F)n2)cc(-c2ccnc(C3(O)CCC(C(=O)O)C(C)(C)C3)c2)c1 (single isomer, unassigned) [Example 9.59, (1S,4R or 1R,4S)-4-hydroxy-2,2-dimethyl-4-[4-(3-methyl-5-{[4-(trifluoromethyl)pyrimidin-2-yl]amino}phenyl)pyridin-2-yl]cyclohexanecarboxylic acid] | < 100 |
| Cc1cc(Nc2ncc(Cl)c(C)n2)cc(-c2ccc(C(C)(O)C3CCC(C(=O)O)CC3)nc2)c1 (single isomer, unassigned) [Example 9.82, trans-4-[(1R or 1S)-1-(5-{3-[(5-chloro-4-methylpyrimidin-2-yl)amino]-5-methylphenyl}pyridin-2-yl)-1-hydroxyethyl]cyclohexanecarboxylic acid] | < 100 |
| Cc1cc(Nc2ncc(F)c(C)n2)cc(-c2ccc(C(C)(O)C3CCC(C(=O)O)CC3)nc2)c1 (single isomer, unassigned) [Example 9.83, trans-4-[(1R or 1S)-1-(5-{3-[(5-fluoro-4-methylpyrimidin-2-yl)amino]-5-methylphenyl}pyridin-2-yl)-1-hydroxyethyl]cyclohexanecarboxylic acid] | < 100 |
| OC1(c2cccc(-c3cc(Nc4nccc(C(F)(F)F)n4)cc(N4CCOCC4)c3)n2)CCC1 [Example 1.1, 1-{6-[3-(Morpholin-4-yl)-5-{[4-(trifluoromethyl)pyrimidin-2-yl]amino}phenyl]pyridin-2-yl}cyclobutanol] | 100 to 1000 |
| FC(F)(F)c1ccnc(Nc2cc(-c3ccccn3)cc(N3CCOCC3)c2)n1 [Example 1.2, N-(3-morpholin-4-yl-5-pyridin-2-ylphenyl)-4-(trifluoromethyl)pyrimidin-2-amine] | < 100 |
| FC(F)(F)c1ccnc(Nc2cc(-c3cccc(N4CCOCC4)n3)cc(N3CCOCC3)c2)n1 [Example 1.3, N-[3-morpholin-4-yl-5-(6-morpholin-4-ylpyridin-2-yl)phenyl]-4-(trifluoromethyl)pyrimidin-2-amine] | < 100 |
| OCCN(CCO)c1cccc(-c2cc(Nc3nccc(C(F)(F)F)n3)cc(N3CCOCC3)c2)n1 [Example 1.4, 2,2′-{[6-(3-morpholin-4-yl-5-{[4-(trifluoromethyl)pyrimidin-2-yl]amino}phenyl)pyridin-2-yl]imino}diethanol] | 100 to 1000 |
| Cc1cc(Nc2nccc(C(F)(F)F)n2)cc(-c2ccc(C(=O)O)nc2)c1 [Example 2.1, 5-(3-Methyl-5-{[4-(trifluoromethyl)pyrimidin-2-yl]amino}phenyl)pyridine-2-carboxylic acid] | < 100 |
| COc1ccnc(Nc2cc(C)cc(-c3cccc(CCC(=O)O)n3)c2)n1 [Example 2.2] | < 100 |
| COc1cccc(-c2cccc(Nc3nccc(C(F)(F)F)n3)c2)n1 [Example 2.3, N-[3-(6-methoxypyridin-2-yl)phenyl]-4-(trifluoromethyl)pyrimidin-2-amine] | 1000 to 10000 |
| CCC(O)(CC)c1cccc(-c2cccc(Nc3nccc(C(F)(F)F)n3)c2)n1 [Example 2.4, 3-[6-(3-{[4-(trifluoromethyl)pyrimidin-2-yl]amino}phenyl)pyridin-2-yl]pentan-3-ol] | 100 to 1000 |
| CCOC(=O)Cc1ccc(-c2cccc(Nc3nccc(C(F)(F)F)n3)c2)nc1 [Example 2.5, ethyl [6-(3-{[4-(trifluoromethyl)pyrimidin-2-yl]amino}phenyl)pyridin-3-yl]acetate] | 100 to 1000 |
| CS(=O)(=O)c1ccc(-c2cccc(Nc3nccc(C(F)(F)F)n3)c2)nc1 [Example 2.6, N-{3-[5-(methylsulfonyl)pyridin-2-yl]phenyl}-4-(trifluoromethyl)pyrimidin-2-amine] | 100 to 1000 |
| NC(=O)c1ccnc(-c2cccc(Nc3nccc(C(F)(F)F)n3)c2)c1 [Example 2.7, 2-(3-{[4-(trifluoromethyl)pyrimidin-2-yl]amino}phenyl)pyridine-4-carboxamide] | 100 to 1000 |
| NC(=O)c1ccc(-c2cccc(Nc3nccc(C(F)(F)F)n3)c2)nc1 [Example 2.8, 6-(3-{[4-(trifluoromethyl)pyrimidin-2-yl]amino}phenyl)pyridine-3-carboxamide] | 100 to 1000 |

| SMILES | IC50 [nM] |
| --- | --- |
| Cc1ccc(S(=O)(=O)Nc2ccc(-c3cccc(Nc4nccc(C(F)(F)F)n4)c3)nc2)cc1 [Example 2.9, 4-methyl-N-[6-(3-{[4-(trifluoromethyl)pyrimidin-2-yl]amino}phenyl)pyridin-3-yl]benzenesulfonamide] | 100 to 1000 |
| Cc1cc(Nc2nccc(C(F)(F)F)n2)cc(-c2ccc(N)c(O)n2)c1 [Example 2.10, 3-amino-6-(3-methyl-5-{[4-(trifluoromethyl)pyrimidin-2-yl]amino}phenyl)pyridin-2-ol] | < 100 |
| O=C(O)c1ccnc(-c2cccc(Nc3nccc(C(F)(F)F)n3)c2)c1 [Example 2.11, 2-(3-{[4-(trifluoromethyl)pyrimidin-2-yl]amino}phenyl)pyridine-4-carboxylic acid] | 100 to 1000 |
| O=C(O)c1cccc(-c2cccc(Nc3nccc(C(F)(F)F)n3)c2)n1 [Example 2.12, 6-(3-{[4-(trifluoromethyl)pyrimidin-2-yl]amino}phenyl)pyridine-2-carboxylic acid] | 100 to 1000 |
| Cc1cc(Nc2nccc(C(F)(F)F)n2)cc(-c2cccc(C(=O)O)n2)c1 [Example 2.13, 6-(3-methyl-5-{[4-(trifluoromethyl)pyrimidin-2-yl]amino}phenyl)pyridine-2-carboxylic acid] | < 100 |
| CCOC(=O)CCc1cccc(-c2cccc(Nc3nccc(C(F)(F)F)n3)c2)n1 [Example 2.14, ethyl 3-[6-(3-{[4-(trifluoromethyl)pyrimidin-2-yl]amino}phenyl)pyridin-2-yl]propanoate] | 1000 to 10000 |
| O=C(O)CCc1ccc(-c2cccc(Nc3nccc(C(F)(F)F)n3)c2)nc1 [Example 2.16, 3-[6-(3-{[4-(trifluoromethyl)pyrimidin-2-yl]amino}phenyl)pyridin-3-yl]propanoic acid] | 100 to 1000 |
| O=C(O)CCc1cccc(-c2cccc(Nc3nccc(C(F)(F)F)n3)c2)n1 [Example 2.17, 3-[6-(3-{[4-(trifluoromethyl)pyrimidin-2-yl]amino}phenyl)pyridin-2-yl]propanoic acid] | 100 to 1000 |
| O=C(O)CCc1ccnc(-c2cccc(Nc3nccc(C(F)(F)F)n3)c2)c1 [Example 2.18, 3-[2-(3-{[4-(trifluoromethyl)pyrimidin-2-yl]amino}phenyl)pyridin-4-yl]propanoic acid] | 100 to 1000 |
| COc1ccnc(Nc2cc(C)cc(-c3cc(CCC(=O)O)ccn3)c2)n1 [Example 2.21, 3-(2-{3-[(4-methoxypyrimidin-2-yl)amino]-5-methylphenyl}pyridin-4-yl)propanoic acid] | < 100 |
| Cc1cc(Nc2nccc(C(F)(F)F)n2)cc(-c2cc(CCC(=O)O)ccn2)c1 [Example 2.22, 3-[2-(3-methyl-5-{[4-(trifluoromethyl)pyrimidin-2-yl]amino}phenyl)pyridin-4-yl]propanoic acid] | < 100 |
| Cc1cc(Nc2nccc(C)n2)cc(-c2cc(CCC(=O)O)ccn2)c1 [Example 2.23, 3-(2-{3-methyl-5-[(4-methylpyrimidin-2-yl)amino]phenyl}pyridin-4-yl)propanoic acid] | < 100 |
| Cc1cc(Nc2nccc(C3CC3)n2)cc(-c2cc(CCC(=O)O)ccn2)c1 [Example 2.24, 3-(2-{3-[(4-cyclopropylpyrimidin-2-yl)amino]-5-methylphenyl}pyridin-4-yl)propanoic acid] | < 100 |
| COc1ccnc(Nc2cc(C)cc(-c3ccc(CCC(=O)O)cn3)c2)n1 [Example 2.26, 3-(6-{3-[(4-methoxypyrimidin-2-yl)amino]-5-methylphenyl}pyridin-3-yl)propanoic acid] | 100 to 1000 |
| Cc1cc(Nc2nccc(C(F)(F)F)n2)cc(-c2ccc(CCC(=O)O)cn2)c1 [Example 2.30, 3-[6-(3-methyl-5-{[4-(trifluoromethyl)pyrimidin-2-yl]amino}phenyl)pyridin-3-yl]propanoic acid] | < 100 |
| Cc1cc(Nc2nccc(C(F)(F)F)n2)cc(-c2cccc(CCC(=O)O)n2)c1 [Example 2.31, 3-[6-(3-methyl-5-{[4-(trifluoromethyl)pyrimidin-2-yl]amino}phenyl)pyridin-2-yl]propanoic acid] | < 100 |
| CCOC(=O)CCc1cccc(-c2cc(C)cc(Nc3nccc(C)n3)c2)n1 [Example 2.32, ethyl 3-(6-{3-methyl-5-[(4-methylpyrimidin-2-yl)amino]phenyl}pyridin-2-yl)propanoate] | 1000 to 10000 |

Same assay, conditions: recombinant GST-hSYK, 25 μM ATP, HTRF; read-out: IC50 (inhibition of human Syk activity)

| SMILES | IC50 [nM] |
| --- | --- |
| OC1(c2cccc(-c3cc(Nc4nccc(C(F)(F)F)n4)cc(N4CCOCC4)c3)n2)CCC1 [Example 1.1, 1-{6-[3-(Morpholin-4-yl)-5-{[4-(trifluoromethyl)pyrimidin-2-yl]amino}phenyl]pyridin-2-yl}cyclobutanol] | 144 |
